US20190321334A1, “COMPOSITIONS AND METHODS FOR THE TREATMENT OF PRESBYOPIA” (priority 2018, published 2019)

Legend:
presbyopic subjects [1] = assay: Near vision acuity after topical instillation (near test card at 16 inches; Reading vs. Baseline at 40 cm; onset, duration, Efficacy Index); type: in vivo, human
From the text: (§1) Subject is an emmetrope over the age of 45 with a baseline near vision of 20.100 and baseline distance vision of 20.20. Topical administration to the eye of 1% w/v pilocarpine in saline solution results in an improvement of near vision to 20.40 (8a), however this improvement comes at the expense of a reduction in distance vision to 20.100 (8b). […] A proper drug carrier can also have a beneficial effect.
(§2) 1.75% w/v aceclidine was formulated in 0.9% w/v saline with 0.02% w/v BAK. Drops were instilled binocularly into a subject. Near vision testing was performed at 16 inches on a Precision Vision 16″ near test card. All near vision testing was binocular.
(§3) As aceclidine is an […], the clinical effectiveness may vary with different ratios. For the present studies a nearly exact 50:50 ratio of stereoisomers was measured as best determined by polarimetry.
In brief, the score is calculated by multiplying the lines of improvement in near visual acuity by the number of hours the improvement lasts. For example a score of: 5 is equal to +1 lines of improvement in near visual acuity for 5 hours; 10 is equal to +1.5 lines of improvement for 6.7 hours; 15 is equal to 2 lines of improvement for 7.5 hours; 20 is equal to 2.5 lines of improvement for 8 hours; 25 is equal to 3+ lines of improvement for 8.3 hours and 35 is equal to 3.75+ lines of improvement for 9 hours.
2 subjects instilled 2 drops each of the above formulation in each eye about 5 minutes apart.

presbyopic subjects [2] = assay: Distance vision acuity after topical instillation; type: in vivo, human; conditions: baseline distance 20.20
From the text: as §1, §2, §3

[3] = 1% w/v pilocarpine or 1.55% w/v aceclidine in saline solution, emmetrope over 45, baseline near 20.100
[4] = 1% w/v pilocarpine or 1.55% w/v aceclidine in saline solution

Row | SMILES | near vision (FIG. 1) (presbyopic subjects [1]; [3]) | near vision (FIG. 1) (presbyopic subjects [1]; 1% w/v pilocarpine with addition of 0.015% w/v tropicamide, baseline near 20.100) | distance vision (FIG. 1) (presbyopic subjects [2]; [4]) | distance vision (FIG. 1) (presbyopic subjects [2]; 1% w/v pilocarpine with addition of 0.015% w/v tropicamide) | time period of near vision improvement (FIG. 1) (presbyopic subjects [1]; 1.55% w/v aceclidine in saline solution) [h] | near vision improvement (presbyopic subjects [1]; 1.75% aceclidine, 2.5% mannitol, 0.01% tropicamide, 5% polysorbate 80) | near vision (FIG. 1) (presbyopic subjects [1]; aceclidine in carrier with 0.042% w/v tropicamide) | near vision (FIG. 1) (presbyopic subjects [1]; aceclidine in carrier: 5.5% HPβCD, 0.75% CMC, 0.25% NaCl, 0.01% BAK)
1 | CC[C@@H]1C(=O)OC[C@@H]1Cc1cncn1C [pilocarpine] | 20.40 | 20.25 | 20.100 | 20.55 |  |  |  | 
2 | CC(=O)OC1CN2CCC1CC2 (racemic) [Aceclidine, aceclidine] | 20.40 |  | without any effect on the baseline distance vision |  | 6 | up to 3 lines of vision acuity | 20.15 | < 20.20
